Assay results from ChEMBL document CHEMBL2062495.
Calls of active or inactive are those of the source. No cut-off for these calls is given here. Square brackets hold non-standard residues; d marks the D form. Peptide text beside a SMILES is read from it. * marks the point of attachment. Sta = CC(C)C[C@H](N)[C@@H](O)CC(=O)O; NMe2Val = CC(C)[C@@H](C(=O)*)N(C)C; dNMeF = CN[C@H](Cc1ccccc1)C(=O)O; dHiv = CC(C)[C@@H](O)C(=O)O; Hiv = CC(C)[C@H](O)C(=O)O

Legend:
[1] = tested on: Dendritic cell; assay: (§1) Inhibition of MHC class 2-dependent antigen processing in DO11.10 TCR transgenic mouse spleen CD11+ dendritic cells assessed as inhibition of ovalbumin 323 to 339-induced CD4+ T cell proliferation incubated for 1 hr prior to ovalbumin 323 to 339 challenge measured after 72 hrs by [3H]thymidine incorporation assay; format: functional, tissue-based
[2] = tested on: Dendritic cell; assay: as §1, with “whole ovalbumin-induced” for “ovalbumin 323 to 339-induced”, “whole ovalbumin-challenge” for “ovalbumin 323 to 339 challenge”; format: functional, tissue-based

COC(=O)[C@@H]1CCCN1C(=O)[C@@H](Cc1ccccc1)N(C)C(=O)[C@H](C)NC(=O)[C@@H](NC(=O)C[C@H](O)[C@H](CC(C)C)NC(=O)[C@H](CC(N)=O)NC(=O)[C@H](CC(C)C)NC(=O)[C@H](OC(=O)[C@@H](OC(=O)[C@H](C(C)C)N(C)C)C(C)C)C(C)C)[C@@H](C)O (NMe2Val-[Hiv][dHiv]LN[Sta]TA[dNMeF]P-OMe)
inhibition [1]: inactive | inhibition [2]: inactive
